Assay results reported in US8367623B2, “Glycolipid and medicine for autoimmune disease containing the same as active ingredient” (Japan as Represented by President of National Center of …, priority 2001, dated 2013).

What was measured:
Murine spleen cells [1] = test: spleen cell cytokine measurements (INF-γ and IL-4, ELISA); type: cell-based; conditions: FIG. 8 and FIG. 9
Method: Murine spleen cells were isolated, and levels of INF-γ and IL-4 formation due to synthesized glycolipids were measured using the ELISA method.
(§1) Murine spleen cells were isolated, and the proliferation reactions for synthesized glycolipids were measured using thymidine incorporation into the cells as the indicator. […] Murine spleen cells were isolated, and levels of INF-γ and IL-4 formation due to the synthesized glycolipids were measured using the ELISA method.

Murine spleen cells [2] = test: spleen cell proliferation reaction (thymidine incorporation); type: cell-based; conditions: FIG. 7 and FIG. 9
Method: Murine spleen cells were isolated, and the proliferation reaction for the synthesized glycolipids were measured using thymidine incorporation into the cells as the indicator.
as §1

[3] = system: collagen induced arthritis; test: collagen arthritis (CIA) suppression test, SJL mice; type: in vivo; conditions: FIG. 4
[4] = system: experimental autoimmune encephalomyelitis (EAE); test: experimental autoimmune encephalomyelitis (EAE) suppression test, B6 mice; type: in vivo, C57BL6J(B6) mice; conditions: for Incidence / Onset / Total score / Max. score / Path. score: 400 ng/kg; for Path. score: pathological score 0-4; for EAE suppression effect: oral administration 400 ng/kg
[5] = system: experimental autoimmune encephalomyelitis (EAE); test: mechanism of EAE suppression, with or without anti-IL-4 antibody; type: in vivo, mice
[6] = system: experimental autoimmune encephalomyelitis (EAE); test: EAE suppression test in NKT knockout mice; type: in vivo, NKT knockout mice (TCR J alpha 281 knockout mice); conditions: for Incidence / Max. score / Onset / Total score: NKT knockout mice, 0 day oral administration, 400 ng/kg
serum INF-γ and IL-4 = test: cytokines in blood (serum INF-γ and IL-4, ELISA); type: in vivo; conditions: administered to mice, serum levels with elapsed time, FIG. 6
Method: A large amount of cytokine is known to be released into the blood in a short duration of time when NKT cells are stimulated. Therefore, serum INF-γ and IL-4 levels with elapsed time were measured using the ELISA method when the synthesized glycolipids were administered to mice.

diabetes incidence = test: suppression test of diabetes incidence in NOD mice; type: in vivo; conditions: NOD mice four weeks in age, 100 μg/kg intraperitoneal, twice, FIG. 5
Method: Next, a suppression test of diabetes incidence was conducted using NOD mice.

[7] = system: collagen induced arthritis; test: collagen arthritis (CIA) suppression test, C57BL6 mice; type: in vivo; conditions: B6 mice, 500 μg/kg intraperitoneally twice a week from the additional immunization, FIG. 4
anti-MOG antibody = test: serum anti-MOG antibody measurements (ELISA); type: in vivo; conditions: FIG. 10
Excerpt: The ELISA method was used to measure levels of anti-MOG antibody and its isotype in the group treated using synthesized glycolipids. The anti-MOG antibody level rose in the group treated using Compound 25.

[8] = system: experimental autoimmune encephalomyelitis (EAE), collagen induced arthritis; conditions: J. Immunol. 2001, 166, 662-669, cited from earlier work
[9] = 0 day oral administration, clinical score 0-6
[10] = anti-IL-4 (+), anti-IL-4 antibody (1 mg/ml) intraperitoneally

| Structure (SMILES) | cytokine predominantly formed by spleen cells (INF-γ / IL-4) (Murine spleen cells [1]) | spleen cell proliferation reaction (Murine spleen cells [2]) | Incidence ([4]; 0 day oral administration) | Onset ([4]; 0 day oral administration) | Total score ([4]; 0 day oral administration) | Max. score [4, 9] | Path. score ([4]; 0 day oral administration) | Incidence ([4]; 8th day oral administration) | Max. score ([4]; 8th day oral administration) | Onset ([4]; 8th day oral administration) | Total score ([4]; 8th day oral administration) | EAE suppression effect ([4]; result in words) | Incidence [5, 10] | Max. score [5, 10] | Onset [5, 10] | Total score [5, 10] | Incidence ([5]; anti-IL-4 (−)) | Max. score ([5]; anti-IL-4 (−)) | Onset ([5]; anti-IL-4 (−)) | Total score ([5]; anti-IL-4 (−)) | other results |
| --- | --- | --- | --- | --- | --- | --- | --- | --- | --- | --- | --- | --- | --- | --- | --- | --- | --- | --- | --- | --- | --- |
| CCCCCCCCCCCCCCCCCCCCCCCC(=O)N[C@@H](CO[C@H]1O[C@H](CO)[C@H](O)[C@H](O)[C@H]1O)[C@H](O)[C@H](O)CCCC [Compound 23, (2S,3S,4R)-1-O-(α-D-galactosyl)-2-(tetracosanoylamino)-1,3,4-octane triol] | IL-4 was predominantly formed | Significant spleen cell proliferation reaction | – | – | – | – | – | – | – | – | – | – | – | – | – | – | – | – | – | – | – |
| CCCCCCCCCCCCCCCCCCCCCCCC(=O)N[C@@H](CO[C@H]1O[C@H](CO)[C@H](O)[C@H](O)[C@H]1O)[C@H](O)[C@H](O)CCC [Compound 24, (2S,3S,4R)-1-O-(α-D-galactosyl)-2-(tetracosanoylamino)-1,3,4-heptane triol] | IL-4 was predominantly formed | Significant spleen cell proliferation reaction | – | – | – | – | – | – | – | – | – | – | – | – | – | – | – | – | – | – | – |
| CCCCCCCCCCCCCCCCCCCCCCCC(=O)N[C@@H](CO[C@H]1O[C@H](CO)[C@H](O)[C@H](O)[C@H]1O)[C@H](O)[C@H](O)CCCCC [Compound 25, (2S,3S,4R)-1-O-(α-D-galactosyl)-2-(tetracosanoylamino)-1,3,4-nonane triol] | IL-4 was predominantly formed | Significant spleen cell proliferation reaction | 10/12 | 14.80 ± 1.22 | 10.71 ± 3.23 | 1.42 ± 0.33 | 1.00 ± 0.13 | 6/7 | 2.25 ± 0.51 | 16.43 ± 1.95 | 10.94 ± 3.40 | EAE suppression effect was observed | 10/10 | 3.50 ± 0.15 | 9.43 ± 0.90 | 38.79 ± 2.94 | 9/10 | 2.75 ± 0.37 | 11.00 ± 0.78 | 26.05 ± 4.16 | suppression of collagen induced arthritis (clinical score) ([3]; 500 μg/kg intraperitoneally twice a week from the additional immunization): effectively suppressed; suppression of collagen induced arthritis (clinical score) ([3]; 500 μg/kg intraperitoneally twice a week, administration upon appearance of symptoms): effectively suppressed; suppression effect in the pathological test ([4]; oral administration, result in words): suppression effect was observed; EAE suppression effect when anti-IL-4 antibody was administered ([5]; anti-IL-4 antibody, result in words): disappeared; EAE suppression effect ([6]; NKT knockout mice (TCR J alpha 281 knockout mice), result in words): could not be observed; Incidence [6]: 6/6; Max. score [6]: 3.64 ± 0.28; Onset [6]: 12.43 ± 0.53; Total score [6]: 34.36 ± 4.15; serum cytokine predominantly formed (INF-γ / IL-4) (serum INF-γ and IL-4): IL-4 was predominantly formed; diabetes incidence (diabetes incidence): significantly suppressed; suppression of collagen induced arthritis (clinical score) [7]: A suppression effect was observed; anti-MOG antibody isotype, IgG1 level (anti-MOG antibody): rose significantly; anti-MOG antibody level (anti-MOG antibody): rose |
| CCCCCCCCCCCCCCCCCCCCCCCCCC(=O)N[C@@H](CO[C@H]1O[C@H](CO)[C@H](O)[C@H](O)[C@H]1O)[C@H](O)[C@H](O)CCCCCCCCCCCCCC [α-GC, (2S,3S,4R)-1-O-(α-D-galactosyl)-2-(N-hexacosanoylamino)-1,3,4-octadecane triol, reference compound] | INF-γ was predominantly formed | – | 12/12 | 14.27 ± 0.98 | 20.32 ± 4.07 | 2.41 ± 0.37 | 1.79 ± 0.38 | 7/7 | 3.00 ± 0.29 | 13.86 ± 0.99 | 17.50 ± 2.74 | no suppression effect was observed | 10/10 | 3.79 ± 0.29 | 11.29 ± 1.58 | 37.00 ± 5.02 | 10/10 | 4.00 ± 0.25 | 9.10 ± 0.84 | 45.00 ± 3.87 | Incidence [6]: 6/6; Max. score [6]: 3.67 ± 0.42; Onset [6]: 13.33 ± 1.41; Total score [6]: 32.25 ± 6.66; serum cytokine predominantly formed (INF-γ / IL-4) (serum INF-γ and IL-4): INF-γ was predominantly formed; effect in suppressing or treating autoimmune diseases ([8]; EAE and collagen induced arthritis models): clearly not effective; cytokines induced [8]: induces both IL-4, a cytokine that suppresses autoimmune diseases, as well as IFN-γ |
